Here are results for 25 molecules from US12503475B2 (Centessa Pharmaceuticals (UK) Limited, priority 2020, dated 2025).

The assay concerns the target T1, human orexin type 2 receptor (hOX2R) (Homo sapiens, UniProt O43614).
T1 construct: expressed in transfected cells
T1 sequence (O43614 1-444): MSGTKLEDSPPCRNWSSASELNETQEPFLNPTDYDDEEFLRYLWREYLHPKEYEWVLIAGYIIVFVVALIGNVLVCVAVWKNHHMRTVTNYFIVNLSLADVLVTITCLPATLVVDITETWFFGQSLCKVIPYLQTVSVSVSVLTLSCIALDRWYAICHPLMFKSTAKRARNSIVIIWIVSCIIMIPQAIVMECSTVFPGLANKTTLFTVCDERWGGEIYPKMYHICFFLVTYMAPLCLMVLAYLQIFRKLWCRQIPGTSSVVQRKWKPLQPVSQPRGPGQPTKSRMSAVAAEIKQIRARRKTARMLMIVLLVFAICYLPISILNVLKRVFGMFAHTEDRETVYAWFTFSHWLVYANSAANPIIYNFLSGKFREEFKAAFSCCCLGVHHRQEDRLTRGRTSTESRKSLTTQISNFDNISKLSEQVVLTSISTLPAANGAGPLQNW
The experiment in a line: Measurement of orexin type 2 receptor agonist activity (FLIPR calcium fluorescence). The format is cell-based. Particulars: CHO cells expressing hOX2R, FLIPR calcium fluorescence; for EC50: read-out: hOx2 pEC50 (converted); for Emax: CHO, read-out: hOx2 Emax (%). The method, then:
The biological activity of the compounds of the present disclosure may be determined in cells stably expressing either orexin type 2 or orexin type 1 receptor. […] The agonist activity of a compound of the present disclosure may be determined by fluorescence value.
Stable cell line generation.
Measurement of orexin type 2 receptor agonist activity. […] As used herein, E. indicates the value at 10 μM concentration when orexin A is converted to a full agonist (maximum value of agonist activity. 100%).

As usually defined, the Emax is the size of the effect at its maximum, as opposed to the concentration needed.

For `CCS(=O)(=O)NC1C(Cc2cccc(-c3ccccc3)c2)N(C(=O)N2CCC2)CC12CC2` (racemic) [Compound 3], the EC50 was 1 to 10 nM and the Emax fell in the range of 90 to 100%.
Taken in the same sequence, the figures for `CS(=O)(=O)NC1C(Cc2cccc(-c3ccccc3)c2)N(C(=O)C(F)(F)F)CC12CC2` (racemic) [Compound 4, N-(6-([1,1′-biphenyl]-3-ylmethyl)-5-(2,2,2-trifluoroacetyl)-5-azaspiro[2.4]heptan-7-yl)methanesulfonamide] were 100 to 1000 nM and 60 to 70%.
As to `CS(=O)(=O)NC1C(Cc2cccc(-c3ccccc3)c2)N(C(=O)C(F)F)CC12CC2` (racemic) [Compound 5, N-(6-([1,1′-biphenyl]-3-ylmethyl)-5-(2,2-difluoroacetyl)-5-azaspiro[2.4]heptan-7-yl)methanesulfonamide], the EC50 is 100 to 1000 nM and the Emax is 90 to 100%.
Taken in the same sequence, the figures for `CCS(=O)(=O)NC1C(Cc2cccc(-c3ccccc3)c2)N(C(=O)OC)CC12CC2` (racemic) [Compound 6, methyl 6-([1,1′-biphenyl]-3-ylmethyl)-7-(ethylsulfonamido)-5-azaspiro[2.4]heptane-5-carboxylate] were 100 to 1000 nM and 70 to 80%.
Taken in the same sequence, the figures for `CCS(=O)(=O)NC1C(Cc2cccc(-c3ccccc3)c2)N(C(=O)C(C)C)CC12CC2` (racemic) [Compound 7, N-(6-([1,1-biphenyl]-3-ylmethyl)-5-isobutyryl-5-azaspiro[2.4]heptan-7-yl)ethanesulfonamide] were 1 to 10 nM and 90 to 100%.
In the case of `CC(C)C(=O)N1CC2(CC2)C(NS(C)(=O)=O)C1Cc1cccc(-c2cccc(F)c2)c1` (racemic) [Compound 8, N-(6-((3′-fluoro-[1,1′-biphenyl]-3-yl)methyl)-5-isobutyryl-5-azaspiro[2.4]heptan-7-yl)methanesulfonamide], the EC50 was 1 to 10 nM and the Emax was 90 to 100%.
For `CC(F)(F)C(=O)N1CC2(CC2)C(NS(C)(=O)=O)C1Cc1cccc(-c2ccccc2)c1` (racemic) [Compound 9, N-(6-([1,1′-biphenyl]-3-ylmethyl)-5-(2,2-difluoropropanoyl)-5-azaspiro[2.4]heptan-7-yl)methanesulfonamide], in that order: 100 to 1000 nM and 40 to 50%.
For `CS(=O)(=O)NC1C(Cc2cccc(-c3ccccc3)c2)N(C(=O)N2CC(F)(F)C2)CC12CC2` (racemic) [Compound 10, N-(6-([1,1′-biphenyl]-3-ylmethyl)-5-(3,3-difluoroazetidine-1-carbonyl)-5-azaspiro[2.4]heptan-7-yl)methanesulfonamide], in that order: 100 to 1000 nM and 90 to 100%.
Taken in the same sequence, the figures for `CS(=O)(=O)NC1C(Cc2cccc(-c3ccccc3)c2)N(C(=O)N2CC(F)C2)CC12CC2` (racemic) [Compound 11, N-(6-([1,1′-biphenyl]-3-ylmethyl)-5-(3-fluoroazetidine-1-carbonyl)-5-azaspiro[2.4]heptan-7-yl)methanesulfonamide] were 10 to 100 nM and 90 to 100%.
On to `CS(=O)(=O)NC1C(Cc2cccc(-c3ccccc3)c2)N(C(=O)C2CC(F)(F)C2)CC12CC2` (racemic) [Compound 12, N-(6-([1,1-biphenyl]-3-ylmethyl)-5-(3,3-difluorocyclobutane-1-carbonyl)-5-azaspiro[2.4]heptan-7-yl)methanesulfonamide], for which the EC50 is 100 to 1000 nM and the Emax was 80 to 90%.
Turning to `CC(C)(F)C(=O)N1CC2(CC2)C(NS(C)(=O)=O)C1Cc1cccc(-c2ccccc2)c1` (racemic) [Compound 13, N-(6-([1,1′-biphenyl]-3-ylmethyl)-5-(2-fluoro-2-methylpropanoyl)-5-azaspiro[2.4]heptan-7-yl)methanesulfonamide], the EC50 was 100 to 1000 nM and the Emax was in the range of 80 to 90%.
Taken in the same sequence, the figures for `COC(=O)N1CCC2(CC2)C(NS(C)(=O)=O)C1Cc1cccc(-c2ccccc2)c1` (racemic) [Compound 14, methyl 5-([1,1′-biphenyl]-3-ylmethyl)-4-(methylsulfonamido)-6-azaspiro[2.5]octane-6-carboxylate] were over 1000 nM and 90 to 100%.
Taken in the same sequence, the figures for `CC(C)C(=O)N1CC2(CC2)C(NS(C)(=O)=O)C1Cc1cccc(-c2ccccc2)c1` (racemic) [Compound 15, N-(6-([1,1′-biphenyl]-3-ylmethyl)-5-isobutyryl-5-azaspiro[2.4]heptan-7-yl)methanesulfonamide] were 10 to 100 nM and 90 to 100%.
Taken in the same sequence, the figures for `CS(=O)(=O)NC1C(Cc2cccc(-c3ccccc3)c2F)N(C(=O)N2CCC2)CC12CC2` (racemic) [Compound 18, N-(5-(azetidine-1-carbonyl)-6-((2-fluoro-[1,1′-biphenyl]-3-yl)methyl)-5-azaspiro[2.4]heptan-7-yl)methanesulfonamide] were 1 to 10 nM and 90 to 100%.
Regarding `CC(C)(C)C(=O)N1CC2(CC2)C(NS(C)(=O)=O)C1Cc1cccc(-c2cccc(F)c2)c1F` (racemic) [Compound 23], the EC50 is 10 to 100 nM and the maximum response (Emax) lay within 90 to 100%.
For `CC(F)(F)C(=O)N1CC2(CC2)C(NS(C)(=O)=O)C1Cc1cccc(-c2cccc(F)c2)c1F` (racemic) [Compound 24, N-(6-((2,3′-difluoro-[1,1′-biphenyl]-3-yl)methyl)-5-(2,2-difluoropropanoyl)-5-azaspiro[2.4]heptan-7-yl)methanesulfonamide], in that order: 10 to 100 nM and 80 to 90%.
As for `CC(C)(O)C(=O)N1CC2(CC2)C(NS(C)(=O)=O)C1Cc1cccc(-c2cc(F)cc(F)c2)c1F` (racemic) [Compound 28, N-(5-(2-hydroxy-2-methylpropanoyl)-6-((2,3′,5′-trifluoro-[1,1′-biphenyl]-3-yl)methyl)-5-azaspiro[2.4]heptan-7-yl)methanesulfonamide], the EC50 was 10 to 100 nM and the Emax lay within 90 to 100%.
For `CS(=O)(=O)NC1C(Cc2cccc(-c3cc(F)cc(F)c3)c2F)N(C(=O)C2CCC2)CC12CC2` (racemic) [Compound 29, N-(5-(cyclobutanecarbonyl)-6-((2,3′,5′-trifluoro-[1,1′-biphenyl]-3-yl)methyl)-5-azaspiro[2.4]heptan-7-yl)methanesulfonamide], in that order: 0.0794 to 1 nM and 90 to 100%.
For `CS(=O)(=O)NC1C(Cc2cccc(-c3cc(F)cc(F)c3)c2F)N(C(=O)N2CCC2)CC12CC2` (racemic) [Compound 30, N-(5-(azetidine-1-carbonyl)-6-((2,3′,5′-trifluoro-[1,1′-biphenyl]-3-yl)methyl)-5-azaspiro[2.4]heptan-7-yl)methanesulfonamide], in that order: 0.0794 to 1 nM and 90 to 100%.
As for `CC(C)C(=O)N1CC2(CC2)C(NS(=O)(=O)CF)C1Cc1cccc(-c2ccccc2)c1` (racemic) [Compound 36, N-(6-([1,1′-biphenyl]-3-ylmethyl)-5-isobutyryl-5-azaspiro[2.4]heptan-7-yl)-1-fluoromethanesulfonamide], the EC50 was 1 to 10 nM and the Emax lay within 90 to 100%.
In the case of `CC[C@@H](O)C(=O)N1CC2(CC2)C(NS(C)(=O)=O)C1Cc1cccc(-c2ccccc2)c1` (mixture of isomers) [Compound 37, N-(6-([1,1′-biphenyl]-3-ylmethyl)-5-((R)-2-hydroxybutanoyl)-5-azaspiro[2.4]heptan-7-yl)methanesulfonamide], the EC50 is 10 to 100 nM and the Emax lay within 90 to 100%.
Taken in the same sequence, the figures for `CCNC(=O)N1CC2(CC2)C(NS(C)(=O)=O)C1Cc1cccc(-c2ccccc2)c1F` (racemic) [Compound 38, N-ethyl-6-((2-fluoro-[1,1′-biphenyl]-3-yl)methyl)-7-(methylsulfonamido)-5-azaspiro[2.4]heptane-5-carboxamide] were 1 to 10 nM and 90 to 100%.
For `CCNC(=O)N1CC2(CC2)C(NS(C)(=O)=O)C1Cc1cccc(-c2ccccc2)c1OC` (racemic) [Compound 44, N-ethyl-6-((2-methoxy-[1,1′-biphenyl]-3-yl)methyl)-7-(methylsulfonamido)-5-azaspiro[2.4]heptane-5-carboxamide], in that order: 1 to 10 nM and 80 to 90%.
Taken in the same sequence, the figures for `CS(=O)(=O)NC1C(Cc2cccc(-c3ccccc3)c2F)N(C(=O)N2CC(F)C2)CC12CC2` (racemic) [Compound 45, N-(6-((2-fluoro-[1,1′-biphenyl]-3-yl)methyl)-5-(3-fluoroazetidine-1-carbonyl)-5-azaspiro[2.4]heptan-7-yl)methanesulfonamide] were 1 to 10 nM and 90 to 100%.
As to `COC1CN(C(=O)N2CC3(CC3)C(NS(C)(=O)=O)C2Cc2cccc(-c3ccccc3)c2F)C1` (racemic) [Compound 46, N-(6-((2-fluoro-[1,1′-biphenyl]-3-yl)methyl)-5-(3-methoxyazetidine-1-carbonyl)-5-azaspiro[2.4]heptan-7-yl)methanesulfonamide], the EC50 was 10 to 100 nM and the Emax was 90 to 100%.
